Legend:
[1] = test system: MDA-MB231 breast cancer cells; experiment: Doxorubicin responsiveness in 3-D cultures within RGD-modified alginate gels versus 2-D monolayer; format: cell-based, human; conditions: 3-D cultures within RGD-modified alginate gels vs 2-D monolayer (FIG. 5C)
Description: To examine tumor malignancy and efficacy of anti-cancer drugs in response to enhanced mechanical stiffness, MDA-MB231 were incorporated in 3-D RGD-modified alginate cultures and were evaluated for proliferation, secretion of a molecular marker of enhanced malignancy (i.e., interleukin-8 (IL-8)), and drug responsiveness.
(§1) Consequently, all subsequent drug testing studies were performed with doxorubicin.

[2] = test system: MDA-MB231 breast cancer cells; experiment: MDA-MB231 viability in conventional 2-D culture; format: cell-based, human
Description: For the drug testing studies, different doses of two frequently utilized chemotherapeutic drugs were first evaluated with regard to their ability to reduce breast cancer cell viability in conventional 2-D culture.
as §1

SMILES	efficacy of doxorubicin treatment in 3-D relative to 2-D conditions [1]	number of viable tumor cells in 2-D culture ([2]; 0.5 μM, 2-D culture (FIG. 5B, right panel))	MDA-MB231 viability in 2-D culture ([2]; high doses, 2-D culture (FIG. 5B, left panel))
COc1cccc2c1C(=O)c1c(O)c3c(c(O)c1C2=O)C[C@@](O)(C(=O)CO)C[C@@H]3O[C@H]1C[C@H](N)[C@H](O)[C@H](C)O1 [doxorubicin]	3-D micro-environmental conditions dramatically-reduce the efficacy of doxorubicin treatment relative to 2-D conditions	efficiently reduced the number of viable tumor cells	
N.N.[Cl][Pt][Cl] [cisplatin]			did not alter MDA-MB231 viability

— US9097702B2, “Pathologically relevant tumor microenvironments for high-throughput drug screening” (Cornell University, priority 2008, dated 2015)
